Data on 24 compounds can be found in patent US10323038B2, “Pyrazole compounds and methods of making and using same” (ABIDE THERAPEUTICS, INC., priority 2015, dated 2019).

The target in test [1] is FAAH (Mus musculus (Mouse), UniProt O08914). In words: In vitro competitive activity-based protein profiling, FAAH (mouse). The settings on record: for inhibition at 1 µM: read-out: FAAH % inh. 1 μM (mouse). Type of test: biochemical. Summed up: (§1)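 Mouse brain membrane fraction or cell lysates (mouse assays) and human prefrontal cortex or cell membrane fractions (human assays), 1.0 mg/mL protein, were preincubated with varying inhibitor concentrations for 30 min at 37° C. FP-Rh or HT-01 probe (50 μM stock in DMSO) was then added for another 30 min at 37° C.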

Test [2] addresses MAGL (Mus musculus (Mouse), UniProt O35678). Description: In vitro competitive activity-based protein profiling, MAGL (mouse). Type of test: biochemical. Particulars: for inhibition at 1 µM: read-out: MAGL % inh. 1 μM (mouse). Summed up:
as §1

As usually defined, the IC50 is the midpoint of a concentration-inhibition curve.

Sequence of FAAH (O08914 whole entry): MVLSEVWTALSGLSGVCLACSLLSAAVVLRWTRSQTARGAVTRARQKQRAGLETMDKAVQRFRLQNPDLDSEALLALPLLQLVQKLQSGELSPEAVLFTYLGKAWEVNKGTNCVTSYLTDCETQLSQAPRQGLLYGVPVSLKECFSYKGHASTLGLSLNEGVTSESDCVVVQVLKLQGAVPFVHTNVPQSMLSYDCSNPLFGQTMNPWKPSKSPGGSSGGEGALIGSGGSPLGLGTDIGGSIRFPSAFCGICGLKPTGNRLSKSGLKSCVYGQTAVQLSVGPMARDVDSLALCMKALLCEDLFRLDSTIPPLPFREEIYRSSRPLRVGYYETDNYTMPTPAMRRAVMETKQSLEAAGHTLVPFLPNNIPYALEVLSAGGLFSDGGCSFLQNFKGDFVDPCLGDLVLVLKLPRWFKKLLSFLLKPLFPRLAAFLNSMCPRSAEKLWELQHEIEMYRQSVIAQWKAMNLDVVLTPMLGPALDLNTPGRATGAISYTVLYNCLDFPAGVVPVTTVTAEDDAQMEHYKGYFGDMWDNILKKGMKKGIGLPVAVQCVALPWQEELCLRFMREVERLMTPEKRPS
Sequence of MAGL (O35678 whole entry): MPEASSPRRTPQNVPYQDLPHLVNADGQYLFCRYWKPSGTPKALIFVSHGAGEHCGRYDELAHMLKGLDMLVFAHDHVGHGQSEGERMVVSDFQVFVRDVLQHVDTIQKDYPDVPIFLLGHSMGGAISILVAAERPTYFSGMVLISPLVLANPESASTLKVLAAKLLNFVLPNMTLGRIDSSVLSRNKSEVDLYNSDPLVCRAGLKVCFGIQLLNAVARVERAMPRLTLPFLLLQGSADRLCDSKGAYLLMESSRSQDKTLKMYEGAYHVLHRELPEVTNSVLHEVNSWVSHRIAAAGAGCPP

Turning to `CC(=O)N(C)c1cnn(C(=O)N2CCC3(CCN(Cc4ccc(-c5cnccn5)cc4Cl)C3)C2)c1` (stereo not shown) [Example 264, N-(1-(7-(2-chloro-4-(pyrazin-2-yl)benzyl)-2,7-diazaspiro[4.4]nonane-2-carbonyl)-1H-pyrazol-4-yl)-N-methylacetamide], the inhibition at 1 µM in test [1] and in test [2] was at least 75% each time.

`CC(=O)N(C)c1cnn(C(=O)N2CC3CN(Cc4ccc(Oc5cncnc5)cc4C(F)(F)F)CC3C2)c1` (stereo not shown) [Example 265, N-methyl-N-(1-(5-(4-(pyrimidin-5-yloxy)-2-(trifluoromethyl)benzyl)octahydropyrrolo [3,4-c]pyrrole-2-carbonyl)-1H-pyrazol-4-yl)acetamide]: the inhibition at 1 µM in test [1] and in test [2] was at least 75% each time.

Consider `CC(=O)N(C)c1cnn(C(=O)N2CC3CN(Cc4ccc(-c5cnccn5)cc4Cl)CC3C2)c1` (stereo not shown) [Example 266, N-(1-(5-(2-chloro-4-(pyrazin-2-yl)benzyl)octahydropyrrolo[3,4-c]pyrrole-2-carbonyl)-1H-pyrazol-4-yl)-N-methylacetamide], for which the inhibition at 1 µM in test [1] and in test [2] was at least 75% in each case.

As to `CC(=O)N(C)c1cnn(C(=O)N2CC3CN(Cc4ccc(-c5nccs5)cc4Cl)CC3C2)c1` (stereo not shown) [Example 267, N-(1-(5-(2-chloro-4-(thiazol-2-yl)benzyl)octahydropyrrolo[3,4-c]pyrrole-2-carbonyl)-1H-pyrazol-4-yl)-N-methylacetamide], the inhibition at 1 µM in test [1] and in test [2] was at least 75% each time.

Turning to `CC(=O)N(C)c1cnn(C(=O)N2CCC3(CCN(Cc4ccc(-c5ncccn5)cc4Cl)C3)C2)c1` (stereo not shown) [Example 268, N-(1-(7-(2-chloro-4-(pyrimidin-2-yl)benzyl)-2,7-diazaspiro[4.4]nonane-2-carbonyl)-1H-pyrazol-4-yl)-N-methylacetamide], the inhibition at 1 µM in test [1] and in test [2] was at least 75% in each case.

Consider `CC(=O)N(C)c1cnn(C(=O)N2CCC3(CCN(Cc4ccc(-c5nccs5)cc4Cl)C3)C2)c1` (stereo not shown) [Example 269, N-(1-(7-(2-chloro-4-(thiazol-2-yl)benzyl)-2,7-diazaspiro[4.4]nonane-2-carbonyl)-1H-pyrazol-4-yl)-N-methylacetamide], for which the inhibition at 1 µM in test [1] and in test [2] was at least 75% throughout.

Regarding `CC(=O)N(C)c1cnn(C(=O)N2CC3CN(Cc4ccc(OC5CCN(C6CC6)CC5)cc4Cl)CC3C2)c1` (stereo not shown) [Example 270, N-(1-(5-(2-chloro-4-((1-cyclopropylpiperidin-4-yl)oxy)benzyl)octahydropyrrolo[3,4-c]pyrrole-2-carbonyl)-1H-pyrazol-4-yl)-N-methylacetamide], the inhibition at 1 µM in test [1] and in test [2] was at least 75% in each case.

With `CC(=O)N(C)c1cnn(C(=O)N2CC3CN(Cc4ccc(OC5CCN(C6CC6)CC5)cc4C(F)(F)F)CC3C2)c1` (stereo not shown) [Example 271, N-(1-(5-(4-((1-cyclopropylpiperidin-4-yl)oxy)-2-(trifluoromethyl)benzyl)octahydropyrrolo [3,4-c]pyrrole-2-carbonyl)-1H-pyrazol-4-yl)-N-methylacetamide], the inhibition at 1 µM in test [1] and in test [2] was at least 75% in each case.

As for `CC(=O)N(C)c1cnn(C(=O)N2CC3CN(Cc4ccc(-c5ccncn5)cc4Cl)CC3C2)c1` (stereo not shown) [Example 272, N-(1-(5-(2-chloro-4-(pyrimidin-4-yl)benzyl)octahydropyrrolo[3,4-c]pyrrole-2-carbonyl)-1H-pyrazol-4-yl)-N-methylacetamide], the inhibition at 1 µM in test [1] and in test [2] was at least 75% in each case.

As for `CC(=O)N(C)c1cnn(C(=O)N2CCC3(CCN(Cc4ccc(-c5ccncn5)cc4Cl)C3)C2)c1` (stereo not shown) [Example 273, N-(1-(7-(2-chloro-4-(pyrimidin-4-yl)benzyl)-2,7-diazaspiro[4.4]nonane-2-carbonyl)-1H-pyrazol-4-yl)-N-methylacetamide], in test [1], the IC50 is at most 100 nM and the inhibition at 1 µM is at least 75%. In test [2], the IC50 fell in the range of 100 to 1000 nM and the inhibition at 1 µM was at least 75%.

As to `CS(=O)(=O)Nc1cnn(C(=O)N2CC3CN(Cc4cc(Cl)ccc4C(F)(F)F)CC3C2)c1` (stereo not shown) [Example 275, N-(1-(5-(5-chloro-2-(trifluoromethyl)benzyl)octahydropyrrolo [3,4-c]pyrrole-2-carbonyl)-1H-pyrazol-4-yl)methanesulfonamide], in test [1], the IC50 was in the range of 100 to 1000 nM and the inhibition at 1 µM was at least 75%. For the same compound, in test [2], the IC50 is at most 100 nM and the inhibition at 1 µM is at least 75%.

Regarding `CS(=O)(=O)Nc1cnn(C(=O)N2CCC3(CCN(Cc4cc(Cl)ccc4C(F)(F)F)C3)CC2)c1` [Example 276, N-(1-(2-(5-chloro-2-(trifluoromethyl)benzyl)-2,8-diazaspiro[4.5]decane-8-carbonyl)-1H-pyrazol-4-yl)methanesulfonamide], the inhibition at 1 µM in test [1] and in test [2] was at least 75% each time.

In the case of `CS(=O)(=O)Nc1cnn(C(=O)N2CCC3(CC2)CN(Cc2cc(Cl)ccc2C(F)(F)F)C3)c1` [Example 277, N-(1-(2-(5-chloro-2-(trifluoromethyl)benzyl)-2,7-diazaspiro[3.5]nonane-7-carbonyl)-1H-pyrazol-4-yl)methanesulfonamide], in test [1], the IC50 was at most 100 nM and the inhibition at 1 µM was at least 75%. In test [2], the IC50 was at most 100 nM and the inhibition at 1 µM was at least 75%.

Turning to `CN(Cc1cc(Cl)ccc1C(F)(F)F)[C@H]1C[C@@H]2CN(C(=O)n3cc(NS(C)(=O)=O)cn3)C[C@@H]2C1` [Example 278, N-(1-[[trans-5-([[5-chloro-2-(trifluoromethyl)phenyl]methyl](methyl)amino)-octahydrocyclopenta[c]pyrrol-2-yl)carbonyl]-1H-pyrazol-4-yl)methanesulfonamide], the inhibition at 1 µM in test [1] and in test [2] was at least 75% in each case.

`CS(=O)(=O)Nc1cnn(C(=O)N2CC3CN(Cc4ccc(N5CCCC5)cc4C(F)(F)F)CC3C2)c1` (stereo not shown) [Example 279, N-(1-(5-(4-(pyrrolidin-1-yl)-2-(trifluoromethyl)benzyl)octahydropyrrolo [3,4-c]pyrrole-2-carbonyl)-1H-pyrazol-4-yl)methanesulfonamide]: in test [1], the IC50 is 100 to 1000 nM and the inhibition at 1 µM was at least 75%. For the same compound, in test [2], the IC50 was at most 100 nM and the inhibition at 1 µM was at least 75%.

With `CS(=O)(=O)Nc1cnn(C(=O)N2CCC3(CCN(Cc4ccc(N5CCCC5)cc4C(F)(F)F)C3)CC2)c1` [Example 280, N-(1-(2-(4-(pyrrolidin-1-yl)-2-(trifluoromethyl)benzyl)-2,8-diazaspiro[4.5]decane-8-carbonyl)-1H-pyrazol-4-yl)methanesulfonamide], the inhibition at 1 µM in test [1] and in test [2] was at least 75% in each case.

Consider `CS(=O)(=O)Nc1cnn(C(=O)N2CCC3(CC2)CN(Cc2ccc(N4CCCC4)cc2C(F)(F)F)C3)c1` [Example 281, N-(1-(2-(4-(pyrrolidin-1-yl)-2-(trifluoromethyl)benzyl)-2,7-diazaspiro[3.5]nonane-7-carbonyl)-1H-pyrazol-4-yl)methanesulfonamide], for which the inhibition at 1 µM in test [1] and in test [2] was at least 75% each time.

Take `CN(Cc1ccc(N2CCCC2)cc1C(F)(F)F)[C@H]1C[C@@H]2CN(C(=O)n3cc(NS(C)(=O)=O)cn3)C[C@@H]2C1` [Example 282, N-(1-(trans-5-(methyl(4-(pyrrolidin-1-yl)-2-(trifluoromethyl)benzyl)amino)octahydrocyclopenta[c]pyrrole-2-carbonyl)-1H-pyrazol-4-yl) methanesulfonamide]: the inhibition at 1 µM is at least 75% in test [1] and 50 to 75% in test [2].

On to `CS(=O)(=O)Nc1cnn(C(=O)N2CCC3(CCN(Cc4cc(Cl)ccc4C(F)(F)F)C3)C2)c1` (stereo not shown) [Example 284, N-[1-[(7-[[5-chloro-2-(trifluoromethyl)phenyl]methyl]-2,7-diazaspiro[4.4]nonan-2-yl)carbonyl]-1H-pyrazol-4-yl]methanesulfonamide], for which the inhibition at 1 µM is at least 75% in test [1] and 25 to 50% in test [2].

With `CS(=O)(=O)Nc1cnn(C(=O)N2CCC3(CCN(Cc4cc(Cl)cc(C(F)(F)F)c4)C3)C2)c1` (stereo not shown) [Example 286, N-(1-(7-(3-chloro-5-(trifluoromethyl)benzyl)-2,7-diazaspiro[4.4]nonane-2-carbonyl)-1H-pyrazol-4-yl)methanesulfonamide], the results for the inhibition at 1 µM in test [1] and in test [2] were at least 75% and 25 to 50%, respectively.

In the case of `CS(=O)(=O)Nc1cnn(C(=O)N2CCC3(CCN(Cc4ccc(-c5nccs5)cc4Cl)C3)C2)c1` (stereo not shown) [Example 287, N-(1-(7-(2-chloro-4-(thiazol-2-yl)benzyl)-2,7-diazaspiro[4.4]nonane-2-carbonyl)-1H-pyrazol-4-yl)methanesulfonamide], the inhibition at 1 µM in test [1] was at least 75%; in test [2] it was 50 to 75%.

As to `CS(=O)(=O)Nc1cnn(C(=O)N2CCN(Cc3ccc(-c4cnccn4)cc3C(F)(F)F)CC2)c1` [Example 289, N-(1-(4-(4-(pyrazin-2-yl)-2-(trifluoromethyl)benzyl)piperazine-1-carbonyl)-1H-pyrazol-4-yl)methanesulfonamide], the results for the inhibition at 1 µM in test [1] and in test [2] were at least 75% and 25 to 50%, respectively.

On to `CS(=O)(=O)Nc1cnn(C(=O)N2CCN(Cc3ccc(-c4nccs4)cc3C(F)(F)F)CC2)c1` [Example 291, N-(1-(4-(4-(thiazol-2-yl)-2-(trifluoromethyl)benzyl)piperazine-1-carbonyl)-1H-pyrazol-4-yl)methanesulfonamide], for which the inhibition at 1 µM in test [1] was at least 75%; in test [2], 50 to 75%.

On to `CS(=O)(=O)Nc1cnn(C(=O)N2CCN(Cc3cc(Cl)ccc3C(F)(F)F)CC2)c1` [Example 293, N-(1-(4-(5-chloro-2-(trifluoromethyl)benzyl)piperazine-1-carbonyl)-1H-pyrazol-4-yl)methanesulfonamide], for which, in test [1], the IC50 lay within 1000 to 10000 nM and the inhibition at 1 µM is at least 75%. Also, in test [2], the IC50 was at most 100 nM and the inhibition at 1 µM fell in the range of 50 to 75%.
